From patent publication US8404665B2, “In vivo use of glutathione S-transferase activated nitric oxide donors” (University of Utah Research Foundation, priority 2002, dated 2013)

Assays:
hGSTA1-1 = target: T1, hGSTA1-1 (Homo sapiens, UniProt P08263); experiment: GST-catalysed GSH conjugation of JS-K and NO release; format: biochemical
T1 sequence (P08263 1-222): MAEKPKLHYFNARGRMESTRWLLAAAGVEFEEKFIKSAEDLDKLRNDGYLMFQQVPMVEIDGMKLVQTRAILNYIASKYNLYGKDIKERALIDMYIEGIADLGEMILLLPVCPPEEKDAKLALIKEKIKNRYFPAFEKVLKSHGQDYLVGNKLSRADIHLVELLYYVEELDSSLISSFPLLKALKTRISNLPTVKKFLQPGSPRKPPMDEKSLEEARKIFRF
Description: (§1) Determination of Specific Activity of Human GSTs Toward JS-K. Purified preparations of recombinant hGSTA1-1, hGSTM1-1 and hGSTP1-1 were obtained from Panvera (Madison, Wis.). The activity of human GST toward CDNB was determined, as described by Habig et al. (Habig, W. H. et al. (1974) J. Biol. Chem. 249: 7130-7139), prior to activity measurements with JS-K to ensure that the enzyme preparations were catalytically active. For activity measurement toward JS-K, the reaction mixture in a final volume of 1 ml contained 100 mM potassium phosphate buffer (pH 6.5), 1 mM GSH, 0.045 mM JS-K, and an appropriate amount of human GST isoenzyme protein. The reaction was started by the addition of JS-K, and the rate of reaction was monitored by measuring decrease in absorbance of JS-K at 298 nm due to its utilization during reaction with GSH. The specific activity toward JS-K was calculated using an extinction coefficient of 18 mM^−1 cm^−1 at 298 nm.
(§2) Measurement of NO Release. Chemiluminescence detection and quantification of NO evolving from the reactions of JS-K were conducted using an NO-specific Thermal Energy Analyzer (Model 502A, Thermedics, Analytical Instrument Division, Waltham, Mass.) essentially as previously described (Keefer, L. K. et al. (1996) Methods Enzymol. 268: 281-293). Briefly, pH 7.4 phosphate buffer containing 1 mM GSH was sparged with inert gas until a steady detector response was established. Where indicated, GSTs were added to a final concentration of 1.67 ug of enzyme/ml. The NO release profile was followed at 37° C. for 45 min after injecting JS-K at a final concentration of 133 nM to start the reaction. The resulting curve was integrated to quantify the amount of NO released/mole of compound.

hGSTM1-1 = target: T2, hGSTM1-1 (Homo sapiens, UniProt P09488); experiment: as above; format: biochemical
T2 construct: purchased Panvera (Madison, Wis.)
T2 sequence (P09488 2-218): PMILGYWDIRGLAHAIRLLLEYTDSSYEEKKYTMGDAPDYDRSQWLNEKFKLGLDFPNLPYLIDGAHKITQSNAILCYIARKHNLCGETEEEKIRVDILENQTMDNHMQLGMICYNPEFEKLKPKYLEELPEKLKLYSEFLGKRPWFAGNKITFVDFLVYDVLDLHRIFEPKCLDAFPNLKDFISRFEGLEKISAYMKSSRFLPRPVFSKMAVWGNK
Description: as §1, §2

hGSTP1-1 = target: T3, hGSTP1-1 (Homo sapiens, UniProt P09211); experiment: as above; format: biochemical
T3 construct: purchased Panvera (Madison, Wis.)
Description: as §1, §2

HL-60 cells = experiment: Apoptosis in HL-60 cells by DNA laddering; format: cell-based, human; settings: 1 μM, twenty-four hours post-addition
Description: Cell Growth, Differentiation and Apoptosis Assays. The number of viable cells was determined using the MTT assay according to the manufacturer's protocol (Promega, Madison, Wis.) or using a Coulter counter. Briefly, a MTT assay is an analytical technique that uses the dye dimethylthiazolyl-diphenyltetrazolium (MTT) which turns from yellow to brownish-purple as it is reduced in the mitochondria of living cells. The assay is useful in calorimetric quantitation of cell viability and proliferation. In contrast, cell differentiation was evaluated using Wright and Non-Specific Esterase (NSE) staining of cells collected on microscope slides by cytospin as previously described (Magrinat, G. et al. (1992) Blood 80: 1880-1884). Apoptosis was assayed by flow cytometry and by determining DNA fragmentation using agarose gel electrophoresis as previously described (Shami, P. J. et al. (1998) Leukemia 12: 1461-1466). For the flow cytometry assay, we used the propidium iodide staining method of Nicoletti et al. (Nicoletti, I. et al. (1991) J. Immunol. Methods 139: 271-279).
Twenty-four hours post-addition, apoptosis induction was assayed by DNA laddering.

T3 sequence (P09211 2-210 limits assumed): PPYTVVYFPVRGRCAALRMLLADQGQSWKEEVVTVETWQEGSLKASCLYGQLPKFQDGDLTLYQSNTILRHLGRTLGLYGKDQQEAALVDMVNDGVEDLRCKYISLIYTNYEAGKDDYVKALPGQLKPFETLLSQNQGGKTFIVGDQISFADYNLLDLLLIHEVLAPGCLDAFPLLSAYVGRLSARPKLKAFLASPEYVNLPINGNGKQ

SMILES: CCOC(=O)N1CCN(/[N+]([O-])=N/Oc2ccc([N+](=O)[O-])cc2[N+](=O)[O-])CC1 [JS-K, O^2-(2,4-dinitrophenyl) 1-[(4-ethoxycarbonyl)piperazin-1-yl]diazen-1-ium-1,2-diolate]
- catalysis of JS-K conjugation (hGSTA1-1): much superior to hGSTP1-1
- catalysis of JS-K conjugation (hGSTM1-1): much superior to hGSTP1-1
- catalysis of NO release from JS-K with GSH (hGSTP1-1; hGSTP1-1): only weakly
- activity for GSH conjugation of JS-K (hGSTP1-1; recombinant hGSTP1-1): much less active than hGSTA1-1 or hGSTM1-1
- effect of JS-K exposure on enzyme's ability to catalyze CDNB's conjugation with GSH (hGSTP1-1; up to 80 uM JS-K): unfettered ability
- apoptosis induction by DNA laddering (HL-60 cells): potent inducer of apoptosis in leukemia cells
